According to patent US12295959B2 (priority 2021, dated 2025):

Experiments:
[1] = biological target: T1, 5-HT2A (Homo sapiens, UniProt P28223); assay: Serotonin 5-HT2A in vitro cellular IPOne antagonism assay; type: cell-based; design: host or cells: CHO-K1; details: CHO-K1 cells, antagonist mode, reference agonist a-Me-5HT
Procedure: (§1) Serotonin 5-HT2A and 5-HT2C In Vitro Cellular IPOne Antagonism Assay. The 5-HT2A IPOne HTRF assay was performed at Epics Therapeutics S.A. (Belgium, FAST-0505I) in antagonism mode using conventional methods. Briefly, CHO-K1 cells expressing human recombinant 5-HT2A receptor grown to mid-log phase in culture media without antibiotics were detached with PBS-EDTA, centrifuged, and resuspended in medium without antibiotics buffer. 20,000 cells were distributed in a 96 well plate and incubated overnight at 37° C. with 5% CO2.
For antagonist testing, a reference agonist a-Me-5HT was added and fluorescence signal monitored for several minutes, followed by addition of 20 μl of assay buffer plus 20 μl of test compound or reference antagonist ketanserin, in each well. The plate was incubated for 60 min. at 37° C. with 5% CO2.
(§2) After addition of the lysis buffer containing IP1-d2 and anti-IP1 cryptate detection reagents, plates were incubated 1-hour at room temperature, and fluorescence ratios were measured according to the manufacturer specification, with the HTRF kit.

[2] = biological target: T1, 5-HT2A; assay: Serotonin 5-HT2A in vitro radioligand binding competition assay ([3H]-DOI); design: purchased Epics Therapeutics S.A. (Belgium) FAST-0505B; host or cells: membrane extracts; details: [3H]-DOI competition, membrane extracts
Procedure: Serotonin 5-HT2A In Vitro Radioligand Binding Competition Assay. The 5-HT2A radioligand binding competition assay was performed at Epics Therapeutics S.A. (Belgium, FAST-0505B) using conventional methods. Briefly, competition binding was performed in duplicate in the wells of a 96 well plate (Master Block, Greiner, 786201) containing binding buffer (optimized for each receptor), membrane extracts (amount of protein/well optimized for each receptor), radiotracer [^3H]-DOI (final concentration optimized for each receptor) and test compound. Nonspecific binding was determined by co-incubation with 200-fold excess of cold competitor. The samples were incubated in a final volume of 0.1 ml at a temperature and for a duration optimized for each receptor and then filtered over filter plates. Filters were washed six times with 0.5 ml of ice-cold washing buffer (optimized for each receptor) and 50 μl of Microscint 20 (Packard) was added in each well. The plates were incubated 15 min on an orbital shaker and then counted with a TopCount™ for 1 min/well.

[3] = biological target: T1, 5-HT2A; assay: Serotonin 5-HT2A in vitro cellular IPOne agonism assay (HTRF); type: cell-based; design: host or cells: CHO-K1; details: CHO-K1 cells, agonist mode
Procedure: as §1, with “5-HT2A” for “5-HT2A and 5-HT2C”, “Agonism” for “Antagonism”, “FAST-0505I)” for “FAST-0505I) in antagonism mode”
For agonist testing, the medium was removed and 20 μl of assay buffer plus 20 μl of test compound or reference agonist are added in each well. The plate was incubated for 60 min. at 37° C. with 5% CO2.
as §2

[4] = tested on: rat cortical neurons; assay: Neurite outgrowth assay; type: cell-based; design: key: A: Statistically significant mean increase as a percent of DMSO control at 10 μM or less.; B: No statistically significant mean increase as a percent of DMSO control at 10 μM or less; details: 72 h, 10 μM or less, vs DMSO control
Description: Neurite Outgrowth Assay. Changes in the pattern of neurite outgrowth have been implicated in psychiatric and neurodegenerative disorders as well as traumatic injuries. The discovery of new compounds that can positively affect neuritogenesis are important for developing new therapeutics for neurological diseases. Measurement of neurite outgrowth of rat cortical neurons using an automated image-based assay was used to determine the neuroplastic effects of the compounds of the present invention. The neurite outgrowth assay was performed at Neurofit SAS (France) as described below.
Pregnant Wistar rats (Janvier; France) were used for the study. They were delivered 6 days before their use. Upon arrival at Neurofit animal facility, they were housed one per cage and maintained in a room with controlled temperature (21-22° C.) and a reversed light-dark cycle (12 h/12 h; lights on: 17:30-05:30; lights off: 05:30-17:30) with food and water available ad libitum.
Female Wistar rats of 17 days gestation were killed by cervical dislocation and the fetuses were removed from the uterus. Their brains were placed in ice-cold medium of Leibovitz (L15, Gibco, Fisher bioblock, France). Cortices were dissected and meninges were carefully removed. The cortical neurons were dissociated by trypsinization for 30 min at 37° C. (trypsin-EDTA, Gibco) in presence of 0.1 mg/ml DNAse I (Roche, France). The reaction was stopped by addition of Dulbecco's Modified Eagle Medium (DMEM; Gibco) with 10% of fetal bovine serum (FBS; Gibco). The suspension was triturated with a 10-ml pipette and using a needle syringe 21G and centrifuged at 350×g for 10 min at room temperature. The pellet of dissociated cells was resuspended in a medium consisting of Neurobasal (Gibco) supplemented with 2% B27 supplement (Gibco), 0.5 mM L-Glutamine (Gibco), an antibiotic-antimicotic mixture. Viable cells were counted in a Neubauer cytometer using the trypan blue exclusion test (Sigma). Cells were seeded at a density of 10000 cells per well in 96-well plate (Costar) precoated with poly-L-lysine. Test compound at different concentrations were added to the cultures. Donepezil (positive control) was tested at 250 nM.
After 72 h (3 days) of plating, cultures were fixed with paraformaldehyde in PBS (4%, Sigma) for 30 min at 4° C. Then, cells were successively permeabilized with 0.1% Triton X100 for 30 min, saturated with PBS containing 3% of BSA and were incubated 1 h with anti-beta III tubulin antibody (Sigma) at 1/10 000 in PBS containing 0.5% of BSA. Cells were washed three times with PBS containing 0.5% of BSA, and they were incubated 1 h with goat anti-mouse antibody coupled with AF488 (Invitrogen A 11001) diluted at 1/1000 in PBS containing 0.5% of BSA. Finally, nuclei were staining with DAPI 1 mg/ml at 1/1000 in PBS containing 0.5% of BSA. After rinsing with PBS, the plate was filmed and neurite networks were examined and analyzed using High-Content Screening (CellInsight, Thermo Scientific). The average number of neurites per neuron and the average total length of neurites per neuron were the main parameters analyzed. Analysis of data was performed using analysis of variance (ANOVA). The Fisher's Protected Least Significant Difference test was used for multiple comparisons. A p value≤0.05 was considered significant. The software used is StatView 5.0 from SAS Institut.

T1 sequence (P28223 whole entry): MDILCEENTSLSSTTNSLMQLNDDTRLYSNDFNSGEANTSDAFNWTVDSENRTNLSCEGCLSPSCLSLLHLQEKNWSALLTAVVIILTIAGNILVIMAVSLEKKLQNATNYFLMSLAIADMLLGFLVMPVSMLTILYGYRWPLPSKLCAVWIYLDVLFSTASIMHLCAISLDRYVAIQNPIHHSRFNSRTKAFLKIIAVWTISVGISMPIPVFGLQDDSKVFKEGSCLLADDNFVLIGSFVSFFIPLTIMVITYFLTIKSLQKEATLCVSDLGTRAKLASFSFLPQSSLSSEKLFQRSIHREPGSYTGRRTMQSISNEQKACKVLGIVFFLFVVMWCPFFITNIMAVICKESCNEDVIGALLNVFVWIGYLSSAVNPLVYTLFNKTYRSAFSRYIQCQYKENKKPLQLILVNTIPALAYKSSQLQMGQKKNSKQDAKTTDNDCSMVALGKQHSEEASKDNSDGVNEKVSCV

SMILES: CN1CCc2[nH]c3cc(OCc4ccccc4)ccc3c2CC1 [Compound 1, 8-(benzyloxy)-3-methyl-1,2,3,4,5,6-hexahydroazepino[4,5-b]indole]
- IC50 [1]: 101 to 1000 nM
- IC50 [2]: 101 to 1000 nM
- EC50 [3]: > 10000 nM
- Increase in Neurite Branching [4]: B
- Increase in Neurite Length [4]: A
- Increase in Neurite Number [4]: A

SMILES: CN1CCc2[nH]c3cccc(OCc4ccccc4)c3c2CC1 [Compound 2, 10-(benzyloxy)-3-methyl-1,2,3,4,5,6-hexahydroazepino[4,5-b]indole]
- IC50 [1]: 10 to 100 nM
- IC50 [2]: < 10 nM
- EC50 [3]: > 10000 nM
- Increase in Neurite Branching [4]: B
- Increase in Neurite Length [4]: A
- Increase in Neurite Number [4]: A

SMILES: c1ccc(COc2ccc3c4c([nH]c3c2)CCNCC4)cc1 [Compound 3, 8-(benzyloxy)-1,2,3,4,5,6-hexahydroazepino[4,5-b]indole]
- IC50 [2]: 101 to 1000 nM
- EC50 [3]: 101 to 1000 nM
- Increase in Neurite Branching [4]: A
- Increase in Neurite Length [4]: A
- Increase in Neurite Number [4]: A

SMILES: c1ccc(COc2cccc3[nH]c4c(c23)CCNCC4)cc1 [Compound 4, 10-(benzyloxy)-1,2,3,4,5,6-hexahydroazepino[4,5-b]indole]
- IC50 [2]: 10 to 100 nM
- EC50 [3]: < 10 nM
- Increase in Neurite Length [4]: B
- Increase in Neurite Number [4]: B

SMILES: Cn1c2c(c3ccc(OCc4ccccc4)cc31)CCNCC2 [Compound 5, 8-(benzyloxy)-6-methyl-1,2,3,4,5,6-hexahydroazepino[4,5-b]indole]
- IC50 [1]: 101 to 1000 nM
- IC50 [2]: 101 to 1000 nM
- EC50 [3]: > 10000 nM
- Increase in Neurite Branching [4]: B
- Increase in Neurite Length [4]: B
- Increase in Neurite Number [4]: B

SMILES: CN1CCc2c(n(C)c3cc(OCc4ccccc4)ccc23)CC1 [Compound 6, 8-(benzyloxy)-3,6-dimethyl-1,2,3,4,5,6-hexahydroazepino[4,5-b]indole]
- IC50 [1]: 101 to 1000 nM
- IC50 [2]: 101 to 1000 nM
- EC50 [3]: > 10000 nM
- Increase in Neurite Branching [4]: B
- Increase in Neurite Length [4]: B
- Increase in Neurite Number [4]: B

SMILES: Fc1ccc(COc2ccc3c4c([nH]c3c2)CCNCC4)cc1 [Compound 7, 8-((4-fluorobenzyl)oxy)~1,2,3,4,5,6-hexahydroazepino[4,5-b]indole]
- IC50 [1]: 101 to 1000 nM
- IC50 [2]: 101 to 1000 nM
- EC50 [3]: 101 to 1000 nM
- Increase in Neurite Branching [4]: B
- Increase in Neurite Length [4]: B
- Increase in Neurite Number [4]: B

SMILES: CN1CCc2[nH]c3cc(OCc4ccc(F)cc4)ccc3c2CC1 [Compound 8, 8-((4-fluorobenzyl)oxy)-3-methyl-1,2,3,4,5,6-hexahydroazepino[4,5-b]indole]
- IC50 [1]: 10 to 100 nM
- IC50 [2]: 101 to 1000 nM
- EC50 [3]: > 10000 nM
- Increase in Neurite Branching [4]: A
- Increase in Neurite Length [4]: A
- Increase in Neurite Number [4]: A

SMILES: Cn1c2c(c3ccc(OCc4ccc(F)cc4)cc31)CCNCC2 [Compound 9, 8-((4-fluorobenzyl)oxy)-6-methyl-1,2,3,4,5,6-hexahydroazepino[4,5-b]indole]
- IC50 [1]: 101 to 1000 nM
- IC50 [2]: 101 to 1000 nM
- EC50 [3]: > 10000 nM
- Increase in Neurite Branching [4]: B
- Increase in Neurite Length [4]: B
- Increase in Neurite Number [4]: B

SMILES: CN1CCc2c(n(C)c3cc(OCc4ccc(F)cc4)ccc23)CC1 [Compound 10, 8-((4-fluorobenzyl)oxy)-3,6-dimethyl-1,2,3,4,5,6-hexahydroazepino[4,5-b]indole]
- IC50 [1]: 10 to 100 nM
- IC50 [2]: 101 to 1000 nM
- EC50 [3]: > 10000 nM
- Increase in Neurite Length [4]: B

SMILES: c1ccc(Oc2ccc3c4c([nH]c3c2)CCNCC4)cc1 [Compound 11, 8-phenoxy-1,2,3,4,5,6-hexahydroazepino[4,5-b]indole]
- IC50 [1]: 101 to 1000 nM
- IC50 [2]: 1000 to 10000 nM
- EC50 [3]: 1000 to 10000 nM

SMILES: Cn1c2c(c3ccc(Oc4ccccc4)cc31)CCNCC2 [Compound 13, 6-methyl-8-phenoxy-1,2,3,4,5,6-hexahydroazepino[4,5-b]indole]
- IC50 [2]: 1000 to 10000 nM
- EC50 [3]: 101 to 1000 nM

SMILES: Fc1ccc(Oc2ccc3c4c([nH]c3c2)CCNCC4)cc1 [Compound 15, 8-(4-fluorophenoxy)-1,2,3,4,5,6-hexahydroazepino[4,5-b]indole]
- IC50 [2]: 101 to 1000 nM
- EC50 [3]: 101 to 1000 nM
- Increase in Neurite Branching [4]: A
- Increase in Neurite Length [4]: A
- Increase in Neurite Number [4]: A

SMILES: Cn1c2c(c3ccc(Oc4ccc(F)cc4)cc31)CCNCC2 [Compound 17, 8-(4-fluorophenoxy)-6-methyl-1,2,3,4,5,6-hexahydroazepino[4,5-b]indole]
- IC50 [2]: 101 to 1000 nM
- EC50 [3]: 101 to 1000 nM

SMILES: c1ccc(Oc2cccc3[nH]c4c(c23)CCNCC4)cc1 [Compound 20, 10-phenoxy-1,2,3,4,5,6-hexahydroazepino[4,5-b]indole]
- IC50 [2]: 10 to 100 nM
- EC50 [3]: 10 to 100 nM
- Increase in Neurite Length [4]: B

SMILES: Fc1ccc(Oc2cccc3[nH]c4c(c23)CCNCC4)cc1 [Compound 21, 10-(4-fluorophenoxy)-1,2,3,4,5,6-hexahydroazepino[4,5-b]indole]
- IC50 [2]: 10 to 100 nM
- EC50 [3]: 10 to 100 nM
- Increase in Neurite Branching [4]: B
- Increase in Neurite Length [4]: B
- Increase in Neurite Number [4]: B

SMILES: Cn1c2c(c3c(Oc4ccc(F)cc4)cccc31)CCNCC2 [Compound 23, 10-(4-fluorophenoxy)-6-methyl-1,2,3,4,5,6-hexahydroazepino[4,5-b]indole]
- IC50 [2]: 10 to 100 nM
- EC50 [3]: 101 to 1000 nM

SMILES: c1ccc(COc2cccc3c4c([nH]c23)CCNCC4)cc1 [Compound 27, 7-(benzyloxy)-1,2,3,4,5,6-hexahydroazepino[4,5-b]indole]
- IC50 [2]: 101 to 1000 nM
- EC50 [3]: 101 to 1000 nM
- Increase in Neurite Length [4]: A
